Measurements reported in patent US5849753A, “Pyridyl imidazole derivatives and processes for the preparation thereof” (Korea Research Institute of Chemical Technology, priority 1994, dated 1998).

Legend:
renal hypertensive rat = test: Blood pressure lowering effect on oral administration to rats at several doses; assay type: in vivo, male Sprague-Dawley rats; conditions: 3 mg/kg
Excerpt: (§1) To induce renal hypertension, left renal artery of 4 week-old male Sprague-Dawley rats(from The Korea Research Institute of Chemical Technology) was ligated. The rats were anesthetized with ether and the surgical region on the left abdomen of the rat was shaved, disinfected, and then incised about 1 cm vertically. The renal artery near abdominal aorta was isolated carefully from surrounding tissues and veins, and then ligated completely with a suture(4/0 sterile surgical silk). The muscular strata and skin of the surgical area were sutured with a suture(4/0 sterile surgical silk). The surgical region was disinfected to prevent infection and thereafter, 200 to 250 mg/Kg/day of cephazolin sodium was injected intramuscularly for 2 days. 6 to 8 days after the ligation, rats showing systolic pressure of more than 180 mmHg were selected for renal hypertension test. The blood pressure was determined by a tail-cuff method from the tail under unanesthetized condition(Gerold, M. et al., Arzneimittrel-Forsch, 18, 1285(1968)).
(§2) Each of the compounds to be tested was administered intravenously or orally into the renal hypertensive rat. The blood pressure of the rats was determined by direct method(Chiu, A. T. et al., J. Pharmacol. Exp. Ther. 250, 867(1989)) using a catheter. The rats were anesthetized with ketamine hydrochloride(125 mg/kg, i.p.) and a catheter was filled with saline and inserted into a carotid artery and carotid vein. The surgical area was sutured with a metal clip. The rats were relaxed at least 3 hours and the catheter in the carotid artery was adapted to an isotec pressure transducer to determine their blood pressure and heart rate with a physiograph(Linearcorder WR3310). After the blood pressure was stabilized, the test compound was administered intravenously or orally. For intravenous administration, the administered volume and washing volume were 1.0 ml/Kg and 0.2 ml, respectively. The blood pressure and heart rate were measured in regular intervals up to 24 hours after the administration of the test compound and compared with those measured after the administration of the control compound Losartan.
The test compound was dissolved in 0.05N KOH for intravenous administration and suspended in Tween 80 for oral administration.
(iii) Blood pressure lowering effect The present compounds, Losartan(Dup 753) and the Merck compound were administrated orally to rats in 10, 3, 1, 0.3 and 0.1 mg/kg under the same condition as in (ii) and the blood pressure lowering effect was determined.

unanesthetized dogs = test: Blood pressure lowering effect in unanesthetized dogs (furosemide treated); assay type: in vivo, dog; set-up: Maximum blood pressure lowering effect in a dog: unit not given here; conditions: dog, oral
Method: A number of dogs were fed freely in a feeding room and those weighing 7 to 12 kg in good health were selected regardless of their gender.
(§3) The test dogs were anesthetized with 30 mg/kg of pentobarbital sodium by intravenous injection and the left femoral artery and femoral vein were separated carefully. Silicone catheter, specially prepared and filled with saline treated with heparin(1,000 IU/ml), was cannulated into the blood vessels. After the surgery, the dogs were constrained to measure their blood pressure continuously with Gould 2000 physiograph adapted to a Grass P23 XL pressure transducer; and their heart rates were monitored with ECG/Biotacho amplifier. The dogs were tested at least 2 days after the surgery.
10 mg/kg of furosemide was injected intramuscularly 18 hours(in case of intravenous injection, 2 hours) before the beginning of the test (administration of the test compound) to improve the activity of renin in blood plasma. After the injection of furosemide, neither food nor water was provided. The test compound was suspended in Tween 80 and administered in an amount of 20 mg/kg orally. The blood pressure and heart rate were measured up to 8 hours after the administration of each test compound.
The maximum blood pressure lowering effect of the present compounds and the control compounds were determined in different amounts of administration using the same method as […]

renal hypertensive rats = test: Duration of action in renal hypertensive rats; assay type: in vivo, male Sprague-Dawley rats; conditions: 3 mg/kg, oral
Excerpt: as §1, §2
The present(Example 28) and control(Merck) compounds were tested using the hypertensive rats of test 2(i). 1 mg or 3 mg/kg of each compound was administered orally and blood pressure lowering effect with time was determined to measure the duration of action of the compounds.

[1] = tested on: furosemide-administered dogs; test: Duration of action in furosemide-administered dogs; assay type: in vivo, dog; conditions: 0.33 mg, per os
Method: as §3
10 mg/kg of furosemide was injected intramuscularly 18 hours(in case of intravenous injection, 2 hours) before the beginning of the test (administration of the test compound) to improve the activity of renin in blood plasma. After the injection of furosemide, neither food nor water was provided. […] The blood pressure and heart rate were measured up to 8 hours after the administration of each test compound.
The compound of Example 8 and the Merck compound were administered orally to the furosemide-administrated dogs as in test 3(i), and blood pressure lowering effect was measured with time.

[2] = Metabolite analysis (enzyme digestion test); assay type: in vitro ADME, male rats; conditions: rat liver microsome and NADPH, 1 hour, 37° C., HPLC
Method: Enzyme digestion test was executed in order to detect the metabolite of the test compound in vivo.
A liver microsome and NADPH system of male rats were added to each of the present compound(Example 8) and the control compound(Merck), and the mixture was incubated for 1 hour at 37° C. The resultant was extracted with methanol or dichloromethane, and, thereafter, the organic layer was evaporated to obtain a residue. The residue was analyzed using high pressure liquid chromatography.

For `CCc1nc2c(C)cc(C)nc2n1Cc1ccc(-c2ccccc2-c2nnn[nH]2)cc1` [Merck compound, reference compound], the “blood pressure lowering effect” value (renal hypertensive rat) was 40%, the “Maximum blood pressure lowering effect in a dog” value (unanesthetized dogs; 0.1 mg/kg) was 20 and the “Maximum blood pressure lowering effect in a dog” value (unanesthetized dogs; 0.3 mg/kg) was 24. For the same compound, the “blood pressure lowering effect with time” value (renal hypertensive rats; 0 min) was 0%, the “blood pressure lowering effect with time” value (renal hypertensive rats; 10 min) was -15% and the “blood pressure lowering effect with time” value (renal hypertensive rats; 20 min) was -27%. For the same compound, the “blood pressure lowering effect with time” value (renal hypertensive rats; 30 min) was -28%, the “blood pressure lowering effect with time” value (renal hypertensive rats; 60 min) was -26% and the “blood pressure lowering effect with time” value (renal hypertensive rats; 90 min) was -28%. For the same compound, the “blood pressure lowering effect with time” value (renal hypertensive rats; 120 min) was -25%, the “blood pressure lowering effect with time” value (renal hypertensive rats; 240 min) was -40% and the “blood pressure lowering effect with time” value (renal hypertensive rats; 360 min) was -36%. The “blood pressure lowering effect with time” value (renal hypertensive rats; 1320 min) was -35%, the “blood pressure lowering effect with time” value (renal hypertensive rats; 1440 min) was -40% and the blood pressure lowered (renal hypertensive rats; time in minutes not given) was -40%. The “blood pressure lowering effect with time” value ([1]; 0 min) was 0.0%, the “blood pressure lowering effect with time” value ([1]; 10 min) was -5.0% and the “blood pressure lowering effect with time” value ([1]; 20 min) was -12.2%. The “blood pressure lowering effect with time” value ([1]; 30 min) was -14.4%, the “blood pressure lowering effect with time” value ([1]; 60 min) was -20.1% and the “blood pressure lowering effect with time” value ([1]; 90 min) was -24.4%. The “blood pressure lowering effect with time” value ([1]; 120 min) was -19.1%, the “blood pressure lowering effect with time” value ([1]; 150 min) was -24.2% and the “blood pressure lowering effect with time” value ([1]; 180 min) was -18.9%. For the same compound, the “blood pressure lowering effect with time” value ([1]; 210 min) was -17.0%, the “blood pressure lowering effect with time” value ([1]; 240 min) was -17.0% and the “blood pressure lowering effect with time” value ([1]; 270 min) was -13.4%. The “blood pressure lowering effect with time” value ([1]; 300 min) was -14.9%, the “blood pressure lowering effect with time” value ([1]; 330 min) was -15.6% and the “blood pressure lowering effect with time” value ([1]; 360 min) was -15.6%. The “blood pressure lowering effect with time” value ([1]; 390 min) was -11.4%, the “blood pressure lowering effect with time” value ([1]; 420 min) was -10.7% and the “blood pressure lowering effect with time” value ([1]; 450 min) was -11.4%. For the same compound, the “blood pressure lowering effect with time” value ([1]; 480 min) was -13.8% and the “metabolite from the enzymatic digestion” value [2] was “has a metabolite”.
